Measured values: patent publication US20210145972A1, “NAN[…] A NUCLEIC ACID SCAFFOLD AND VIRUS-BINDING PEPTIDE MOIETIES” (FRAUNHOFER-GESELLSCHAFT ZUR FÖRDERUNG DER ANGEWANDTEN …, priority 2017, published 2021)
Entries after “also recorded” stand apart in the source; their conditions may differ. Ends that are not written are not given here.

What was measured:
[1] = tested on: Dengue virus 2; assay: Focus formation assay; format: cell-based
Protocol: The inhibition of Dengue virus 2 by DET4 peptides and DET4 coupled to DNA nanostructures was investigated by focus formation assay. Target cells were seeded in a 96-well plate the day before infection. In a separate 96 well plate 200-500 virus particles per well were incubated with or without DET4 monomers and DET4-coupled DNA Trimers in different concentrations for 2 hours followed by transfer of the mixtures to confluent target cell monolayers and incubation for 1 h at 37° C.
Subsequently fresh DMEM/2% (v/v) FBS containing 1.6% (w/v) Avicell was added to each well, covering the surface with microcrystalline cellulose to avoid spreading of the virus in the medium and enhancing formation of virus foci. Infected cells were incubated for 4 days followed by washing with PBS and fixing with 70% ethanol. Cells were rinsed with phosphate buffered saline, pH 7.4 (PBS) prior to immunostaining. Virus foci were detected using an Anti-flavivirus mouse monoclonal antibody that recognizes Dengue viruses, followed by horseradish peroxidase-conjugated goat anti-mouse immunoglobulin, and developed using TMB chromogen substrate. After washing, Virus foci were visible in the wells as blue spots that were counted for quantitative analysis. Counting results are presented in the table 1.

[2] = tested on: Dengue virus; settings: read-out: virus entry into host cells inhibited by 50% (IC50); cited from earlier work
[3] = target: influenza A hemagglutinin (Influenza A virus, UniProt P03437); settings: read-out: dissociation constant KD with hemagglutinin; cited from earlier work
[4] = tested on: influenza A infection of MDCKII cells; assay: Infection inhibition assay using MDCKII cells (cytopathic effect); format: cell-based
Protocol: Also preferred is an infection inhibition assay. The infection inhibition assay using MDCKII cells and the MTT Test (or MTS). Inhibitor (peptide-conjugates DNA nanostructure) and virus are pre-incubated for 10-30 min at room temperature and added to cells (MDCKII for influenza, Vero E6 for Dengue). Viral infection of host cells can be tested after 24-72 h by either crystal violet staining or MTT/MTS reagents. Infected cells will slow down their metabolism and/or die after a certain time.
The inhibition of the influence virus by different DNA scaffolds together with PeB is shown. It can be seen from SPR data in FIG. 8 that the binding of virus particles is increased when more peptides are presented on the DNA scaffold. […] No binding to the virus particles is seen when they are not carrying any peptides.
FIG. 14A: Infection inhibition assay using MDCKII cells. This is a microscopic image of MDCKII cells. The cells form a healthy monolayer. No cytopathic effect (CPE) is seen.
FIG. 14b: Infection inhibition assay using MDCKII cells. This is a microscopic image of MDCKII cells infected with influenza viruses. The cells begin to die. A cytopathic effect (CPE) (rounding up and small aggregations of the cells) is clearly seen.

[5] = tested on: inactivated influenza A virus; format: binding; settings: flow cell 4 vs flow cell 2
[6] = tested on: influenza A viruses; assay: Hemagglutination inhibition assay (HAI); format: cell-based; settings: dilution series, constant virus and blood, FIGS. 11-13

In the case of AGVKDGKLDF [DET4], the “inhibition of Dengue virus infection of target cells, result in words” value [1] is reported as “not able to inhibit viral infection”, the virus foci counted ([1]; 10 μM) is reported as 53 and the virus foci counted ([1]; 50 μM) is reported as 47. For the same molecule, the virus foci counted ([1]; 100 μM) was 46 and the IC50 [2] was 35 µM.

In the case of “ARDFYDYDVFYYAMD [PeB, reference compound]”, the Kd [3] is given as 56.8 µM and the “inhibition of infection / cytopathic effect” value ([4]; 500 μM) is given as “more significant cytopathic effect; also recorded: not enough to inhibit the infection”.

With “DNA 4-arm structure with 3×PeB: mimics the N structure with a fourth arm bearing biotin, carrying 3×PeB (ARDFYDYDVFYYAMD; also: stated molecule is a DNA 4-arm structure with biotin arm carrying 3×PeB)” the “dissociation time compared to the simple DNA double-strand (SPR)” value [5] was “slower dissociation time”.

B1: DNA-PeB3: three-branched DNA scaffold of three DNA strands (SEQ ID NOs 2-4) with three PeB peptide moieties, one per strand end (conjugate)
DNA 1: ACTATCTTTGGTCTATTATCTTGAGTCATC
DNA 2: TAGTTGTGTGTGTGTTAGACCAAAGATAGT
DNA 3: GATGACTCAAGATAAACACACACACAACTA
modifications: DNA, backbone and methylation of C not given here; PeB peptide conjugated at one end of each strand
For B1, the “inhibition of infection / cytopathic effect” value ([4]; 11 μM, listed as N with 3 peptides) was “clear inhibition”, the “inhibition of infection / cytopathic effect” value ([4]; 11 μM, listed as Trimer “N” with 3×PeB) was “Virus infection was inhibited” and the “inhibition of virus binding to RBCs (HAI), result in words” value (shortened to “inhibition of virus binding to RBCs”) [6] was “able to inhibit binding of the influenza A virus to red blood cells”. The “inhibition of virus binding to RBCs” value ([6]; listed as N) was “concentration-dependent increase in binding” and the “inhibition of virus binding to RBCs” value ([6]; listed as N_3×PeB) was “RBCs forming a dot on the bottom of the well can be seen for high concentrations; also recorded: hinder the viruses from binding to RBCs”.
